Laboratory results reported in patent US20050038058A1, “Novel compounds and methods for therapy” (Institute of Organic Chemistry and Biochemistry, priority 2001, published 2005).
≈ marks a conversion by molar mass, not a printed value.

Legend:
[1] = Inhibition of CEM cell growth (cytostatic activity); format: cell-based; details: human, CEM cells, 50% cytostatic concentration, CEM cell proliferation; Table 1; read-out: CC50 (CEM)
Procedure: (§1) Cytostatic and antimetabolic effect of acyclic nucleoside phosphonates in vitro. The assays to examine the inhibition of CEM cell growth by the test compounds have been described previously (Balzarini et al., AIDS 5:21-28, 1991). The 50% cytostatic concentration (CC50) was defined as the concentration of compound that reduced the number of living cells by 50% . To measure MT-4 cell toxicity of the test compounds, 5×10^4 MT-4 cells were incubated in the wells of 96-well microplates in the presence or absence of different concentrations of the test compounds for 5 days at 37° C. The CC50 was then calculated from the number of living cells counted under a microscope by the trypan blue exclusion method.

[2] = system: HIV-1(IIIB); assay: HIV-1(IIIB)-induced cytopathicity in CEM cell cultures; format: cell-based; details: for EC50: Human immunodeficiency virus 1, CCRF-CEM, read-out: EC50 HIV-1 (CEM)
Description: Viruses. The origins of MSV, HIV type 1 (HIV-1) (strain IIIB and Ba-L), HIV-2 (strain ROD) and FIV (strain Petaluma) have been described previously (Balzarini et al., AIDS 5: 21-28, 1991; De Clercq et al., Proc. Soc. Exp. Biol. Med. 137:590-594, 1971; Egberink et al., Proc. Natl. Acad. Sci. 87:3087-3091, 1990; Hartmann et al., Antiviral Chem. Chemother. 5:13-19, 1994; Popovic et al., Science 224:497-500, 1984). HIV-1(IIIB) and HIV-2(ROD) stocks were obtained from supernatants of virus-infected MT-4 cell cultures. HIV-1BaL was expanded in human primary M/M, whose supernatants were collected, filtered and stored at −80° C. before use. Characteristics of viral stocks used for this study were 2.1×10^8 HIV-RNA genomes/ml (corresponding to 35 ng of p24 antigen) and 5,000 tissue culture infectious doses 50% per ml (TCID50/ml) as assessed by virus titration in other primary M/M cultures. The isolation and characterization of the clinical HIV-1 isolates L1S, L6S and L6S/PMEA has been reported (Thormar et al., Proc. Natl. Acad. Sci. USA 93:3283-3287, 1995; Van Laethem et al., AIDS 15:553-561, 2001). […] HIV-1/L6S/PMEA is the clinical isolate HIV-1/L6S that has been isolated after culturing the virus for 11 passages in the presence of increasing concentrations of PMEA (adefovir).
In vitro antiviral assays. The activity against HIV-1- and HIV-2-induced cytopathicity was examined in MT-4 cell cultures at day 5 post infection and based on the determination of cell viability by trypan blue dye staining or in CEM cell cultures at day 4 to 5 post infection and based on the microscopical examination of virus-induced giant cell formation. HIV-1 and HIV-2 were added at 100 CCID50 to the cell cultures.

[3] = system: CEM cells; assay: Inhibition of CEM cell growth (cytostatic activity); format: cell-based; details: 50% cytostatic concentration, CEM cell proliferation; Table 1
Procedure: as §1

[4] = system: HIV-2; assay: Antiviral activity, HIV-2, Table 1a; format: cell-based; details: Human immunodeficiency virus 2
[5] = system: VZV TK − 07/1; assay: Antiviral activity, VZV TK- 07/1, Table 1a; format: cell-based; details: Human alphaherpesvirus 3, read-out: Antiviral Activity EC50 VZV TK − 07/1
[6] = system: VZV TK + YS; assay: Antiviral activity, VZV TK+ YS, Table 1a; format: cell-based; details: Human alphaherpesvirus 3
[7] = system: VZV TK + OKA; assay: Antiviral activity, VZV TK+ OKA, Table 1a; format: cell-based; details: Human alphaherpesvirus 3, read-out: Antiviral Activity EC50 VZV TK + OKA
[8] = system: HSV-1 TK- VMW 1837; assay: Antiviral activity, HSV-1 TK- VMW 1837, Table 1a; format: cell-based; details: Human alphaherpesvirus 1, read-out: Antiviral Activity EC50 HSV-1 TK- VMW 1837
[9] = system: CMV Davis; assay: Antiviral activity, CMV Davis, Table 1a; format: cell-based; details: Human betaherpesvirus 5
[10] = system: HSV-2 (G); assay: Antiviral activity, HSV-2 (G), Table 1a; format: cell-based; details: Human alphaherpesvirus 2
[11] = system: MSV; assay: Antiviral activity, MSV, Table 1a; format: cell-based
[12] = system: CMV AD-169; assay: Antiviral activity, CMV AD-169, Table 1a; format: cell-based; details: Human betaherpesvirus 5, AD169
[13] = system: HIV-1; assay: microbe, parasite or virus in culture; details: Human immunodeficiency virus 1, read-out: Antiviral Activity EC50 HIV-1
[14] = system: VZV TK − YS/R; assay: Antiviral activity, VZV TK- YS/R, Table 1a; format: cell-based; details: Human alphaherpesvirus 3, read-out: Antiviral Activity EC50 VZV TK − YS/R
[15] = system: HSV-1 (KOS); assay: Antiviral activity, HSV-1 (KOS), Table 1a; format: cell-based; details: Human alphaherpesvirus 1
[16] = HIV-1(IIIB)-induced cytopathicity in CEM cell cultures, Table 1

| Structure (SMILES) | CC50 [1] [mg/L] | Antiretroviral (anti-HIV-1) activity in CEM cell cultures, in words [2] | EC50 [2, 16] [mg/L] | EC50 [4] [mg/L] | EC50 [5] [mg/L] | EC50 [6] [mg/L] | EC50 [7] [mg/L] | EC50 [8] [mg/L] | EC50 [9] [mg/L] | EC50 [10] [mg/L] | EC50 [11] [mg/L] | EC50 [12] [mg/L] | EC50 [13] [mg/L] | EC50 [14] [mg/L] | EC50 [15] [mg/L] | further results |
| --- | --- | --- | --- | --- | --- | --- | --- | --- | --- | --- | --- | --- | --- | --- | --- | --- |
| Nc1cc(OCCOCP(=O)(O)O)ncn1 [Compound 3, 4-amino-6-[2-(phosphonomethoxy)ethoxy]pyrimidine] | > 100 | complete annihilation of the antiretroviral activity | > 100 |  |  |  |  |  |  |  |  |  |  |  |  |  |
| Nc1nc(O)cc(SCCOCP(=O)(O)O)n1 [Compound 5, 2-amino-4-hydroxy-6-{[2-(phosphono-methoxy)ethyl]sulfanyl}pyrimidine] | > 100 | completely inactive | > 100 |  |  |  |  |  |  |  |  |  |  |  |  |  |
| CN(C)c1cc(OCCOCP(=O)(O)O)nc(N)n1 [Compound 6, 2-amino-4-dimethylamino-6-[2-(phosphonomethoxy)-ethoxy]pyrimidine] | > 100 | complete annihilation of the antiretroviral activity | > 100 |  |  |  |  |  |  |  |  |  |  |  |  |  |
| Nc1nc(NC2CC2)cc(OCCOCP(=O)(O)O)n1 [Compound 7, 2-amino-4-cyclopropylamino-6-[2-(phosphonomethoxy)ethoxy]pyrimi-dine] |  | complete annihilation of the antiretroviral activity |  |  |  |  |  |  |  |  |  |  |  |  |  | CC50 (CEM) [3]: >100 mg/L; EC50 HIV-1 (CEM) [2, 16]: >100 mg/L |
| CSc1nc(N)cc(OCCOCP(=O)(O)O)n1 [Compound 8, 4-amino-2-methylsulfanyl-6-[2-(phosphonomethoxy)ethoxy]pyrimidine] | > 100 | complete annihilation of the antiretroviral activity | > 100 |  |  |  |  |  |  |  |  |  |  |  |  |  |
| Cc1cc(OCCOCP(=O)(O)O)nc(N)n1 [Compound 9, 2-amino-4-methyl-6-[2-(phosphonomethoxy)ethoxy]pyrimidine] | > 100 | complete annihilation of the antiretroviral activity | > 100 |  |  |  |  |  |  |  |  |  |  |  |  |  |
| Nc1cc(OCCOCP(=O)(O)O)nc(N)n1 [Compound H-3404] |  |  |  | 0.43 ± 0.32 (≈ 1.63 µM) | 2.5 (≈ 9.46 µM) | 1.1 | 1.2 | 9.6 (≈ 36.3 µM) | > 50 | 24 (≈ 90.8 µM) | 0.035 ± 0.002 (≈ 0.132 µM) | > 50 | 0.8 (≈ 3.03 µM) | 1.6 (≈ 6.06 µM) | 6.5 (≈ 24.6 µM) |  |
| Nc1cc(SCCOCP(=O)(O)O)nc(N)n1 [Compound H-3408] |  |  |  | 3 ± 1.4 (≈ 10.7 µM) | 20 (≈ 71.4 µM) | 7 | 7.5 | 48 (≈ 171 µM) | > 50 | ≥ 80 | 1.7 (≈ 6.07 µM) | > 50 | 5.5 ± 2.1 (≈ 19.6 µM) | 15 (≈ 53.5 µM) | 29 (≈ 103 µM) |  |
| Nc1cc(OCCOCP(=O)(O)O)ncn1 [Compound H-3418] |  |  |  | > 100 | > 50 | > 50 | > 50 | > 16 | > 50 | > 16 | 12.6 ± 7.6 (≈ 50.6 µM) | > 50 | > 100 | > 50 | > 16 |  |
| CN(C)c1cc(OCCOCP(=O)(O)O)nc(N)n1 [Compound H-3427] |  |  |  | > 100 | > 50 | > 50 | > 50 | > 400 | > 50 | > 400 | 139 ± 11 (≈ 476 µM) | > 50 | > 100 | > 50 | > 400 |  |
| Nc1nc(NC2CC2)cc(OCCOCP(=O)(O)O)n1 [Compound H-3435] |  |  |  | > 100 | > 50 | > 50 | > 20 |  | > 50 | > 80 | > 40 | > 50 | > 100 | > 50 | 240 (≈ 789 µM) |  |
| Nc1nc(OCCOCP(=O)(O)O)cc(OCCOCP(=O)(O)O)n1 [Compound H-3444] |  |  |  | 80 ± 34.6 (≈ 198 µM) | > 50 | > 50 | > 50 |  | > 50 | > 400 | 4.26 ± 0.75 (≈ 10.6 µM) | > 50 | 56.7 ± 37.9 (≈ 141 µM) | > 50 | 240 (≈ 595 µM) |  |
| Nc1nc(OCCOCP(=O)(O)O)cc(=O)n1CCOCP(=O)(O)O [Compound H-3445] |  |  |  | > 100 | > 50 | > 50 | > 50 | > 400 | > 50 | > 400 | 107 ± 10 (≈ 265 µM) | > 50 | > 100 | > 50 | > 400 |  |
| Nc1nc(O)cc(OCCOCP(=O)(O)O)n1 [Compound H-3574] |  |  |  |  |  | 0.9 | 1.1 |  | 16 (≈ 60.3 µM) | 9.6 (≈ 36.2 µM) | 0.08 (≈ 0.302 µM) | 14 (≈ 52.8 µM) | > 0.8 | 0.6 (≈ 2.26 µM) | 9.6 (≈ 36.2 µM) |  |
| Nc1nc2c(ncn2CCOCP(=O)(O)O)c(=O)[nH]1 [PMEG, reference compound] |  |  |  |  |  |  |  |  |  |  |  |  |  |  |  | EC50 as such ([2]; HIV-1 (IIIB) in CEM, no addition, Table 3): >0.05 mg/L; EC50 upon addition of Ade (100 μM) ([2]; HIV-1 (IIIB) in CEM, Ade 100 μM): >0.05 mg/L; EC50 upon addition of Ado (400 μM) ([2]; HIV-1 (IIIB) in CEM, Ado 400 μM): >0.05 mg/L; EC50 upon addition of Guo (10 μM) ([2]; HIV-1 (IIIB) in CEM, Guo 10 μM): >0.05 mg/L; EC50 upon addition of dCyd (1 mM) ([2]; HIV-1 (IIIB) in CEM, dCyd 1 mM): >0.25 mg/L; EC50 upon addition of dThd (10 μM) ([2]; HIV-1 (IIIB) in CEM, dThd 10 μM): >0.25 mg/L |
